Data as given in US20240009121A1, “PHARMACEUTICAL COMPOSITION CONTAINING NEUROACTIVE STEROID AND USE THEREOF” (Brii Biosciences, Inc., priority 2020, published 2024).
Read-outs that look alike come from different tables or passages of the source.

Key:
[1] = Single IV infusion PK of brexanolone in rats; type: in vivo; conditions: male Sprague Dawley rat; single IV infusion 1.0 mg/kg over 30 minutes; mean
Experimental: (§1) Following a single IV infusion in rats (1.0 mg/kg) and dogs (2.0 mg/kg) over 30 minutes, the PK parameters in Table 2 were obtained.
(§2) In the rat and dog PK studies including brexanolone IV infusion and IM administrations, brexanolone was quantified in rat and dog plasma using a sensitive and specific analytical procedure. Analytes were separated by liquid chromatography (LC) and brexanolone was detected by positive mode electrospray tandem mass spectrometry (MS/MS). The lower limit of quantitation (LLOQ) was 1.0 to 3.0 ng/mL. In the GLP study, LLOQ was 1.0 ng/mL in the rat.
(§3) Intravenous dosing of brexanolone was performed through a 30-min infusion via the jugular vein cannula (JVC) or a temporary percutaneous catheter placed into a lateral tail vein in rats, and via the cephalic vein in dogs. Different suspension formulations were also dosed intramuscularly into the rats and dogs in accordance with test facility standard operating procedures. At the designated time points, blood was collected via direct venipuncture of a cephalic or jugular vein in rats and via the cephalic or saphenous vein in dog. Blood was transferred into collection tubes containing K2EDTA anticoagulant and stored on ice until processed. Blood was processed for plasma by centrifugation. Plasma was then transferred into a 96-well container and stored in a freezer maintained at approximately −70° C. The quantitative analyses of the resulted plasma samples were conducted using a qualified LC-MS/MS method.

[2] = Single IV infusion PK of brexanolone in dogs; type: in vivo; conditions: male Beagle dog; single IV infusion 2.0 mg/kg over 30 minutes; mean
Experimental: as §1, §2, §3

rat = conditions: single IV slow bolus, cited from earlier work
dog [3] = conditions: single IV slow bolus, cited from earlier work
rats = conditions: rat, cited from earlier work
[4] = rat, 14-day continuous IV infusion, 18 mg/kg/day, cited from earlier work
dog [5] = conditions: cited from earlier work
[6] = dog, 14-day continuous IV infusion, 36 mg/kg/day, cited from earlier work
Sprague Dawley rats = conditions: rat, cited from earlier work
[7] = 28-day continuous IV infusion, cited from earlier work
Beagle dogs = conditions: dog, cited from earlier work
[8] = 28-day continuous IV infusion, cited from earlier work; remark: listed apart in the source
[9] = brexanolone IV at the MRHD of 90 μg/kg/h; cited from earlier work
[10] = 5-day continuous IV infusion study
[11] = 28-day continuous IV infusion, 10, 30, 60 mg/kg/day
[12] = 28-day continuous IV infusion, 12, 36, 72 mg/kg/day

1-(3R,5S,8R,9S,10S,13S,14S,17S)-3-hydroxy-10,13-dimethylhexadecahydro-1H-cyclopenta[a]phenanthren-17-yl) ethan-1-one [brexanolone]
AUC0-inf [1]: 177 ng·h/mL
AUC0-t [1]: 175 ng·h/mL
MRTinf [1]: 21.5 min
AUC0-inf [2]: 289 ng·h/mL
AUC0-t [2]: 283 ng·h/mL
CL [2]: ~120 mL/min/kg
MRTinf [2]: 26.5 min
T1/2 [2]: ~101 min
Vss [2]: ~2.99 L/kg
single bolus dose at which rapid anesthesia (within 1 minute) was observed (rat; doses ≤50 mg/kg): ≥ 10 mg/kg
maximum tolerated dose (MTD) for slow bolus administration (rat; shallow respiration and death of one male at 50 mg/kg): 30 mg/kg
single bolus dose at which rapid anesthesia (within 1 minute) was observed (dog [3]; doses ≤30 mg/kg): ≥ 7.5 mg/kg
MTD for slow bolus administration (dog [3]; irregular breathing in 1 of 4 dogs at 30 mg/kg): 20 mg/kg
MTD (rats; [10]): 120 mg/kg/day
NOAEL for poor clinical condition resulting in premature euthanasia (rats; 14-day continuous IV infusion study): 18 mg/kg/day
AUC0 24 h at NOAEL ([4]; females): 1790 ng·h/mL
Cmax at NOAEL ([4]; females): 111 ng/mL
AUC0 24 h at NOAEL ([4]; males): 2910 ng·h/mL
Cmax at NOAEL ([4]; males): 196 ng/mL
MTD (dog [5]; [10]): 60 mg/kg/day
NOAEL (dog [5]; 14-day continuous IV infusion study, convulsion in one female at 72 mg/kg/day): 36 mg/kg/day
AUC0-24h at NOAEL ([6]; females): 3840 ng·h/mL
Cmax at NOAEL ([6]; females): 210 ng/mL
AUC0-24h at NOAEL ([6]; males): 3560 ng·h/mL
Cmax at NOAEL ([6]; males): 201 ng/mL
body weight gain compared to vehicle controls (Sprague Dawley rats; females, 30 mg/kg/day, Day 7 to 28): 138%
body weight gain compared to vehicle controls (Sprague Dawley rats; females, 30 mg/kg/day, Day −1 to 7): 160%
body weight gain compared to vehicle controls (Sprague Dawley rats; females, 60 mg/kg/day, Day 7 to 28): 123%
body weight gain compared to vehicle controls (Sprague Dawley rats; females, 60 mg/kg/day, Day −1 to 7): 193%
body weight gain compared to vehicle controls (Sprague Dawley rats; males, 10 mg/kg/day, first 7 days): 126%
body weight gain compared to vehicle controls (Sprague Dawley rats; males, 30 mg/kg/day, first 7 days): 126%
body weight gain compared to vehicle controls (Sprague Dawley rats; males, 60 mg/kg/day, Day 7 to 28): 71%
body weight gain compared to vehicle controls (Sprague Dawley rats; males, 60 mg/kg/day, first 7 days): 132%
exposure at NOAEL as multiple of the human exposure at the MRHD (Sprague Dawley rats; 60 mg/kg/day vs human 90 μg/kg/h): 5 times
mortality (Sprague Dawley rats; [11]): no test article or vehicle-related mortalities
test article related clinical observations (Sprague Dawley rats; [11]): No test article related clinical observations were noted
NOAEL (Sprague Dawley rats; 28-day continuous IV infusion): 60 mg/kg/day
AUC0-24 h (= AUC0-672 h/28) ([7]; rat F, 10 mg/kg/day): 1410 ng·h/mL
Cmax ([7]; rat F, 10 mg/kg/day): 63.1 ng/mL
Css (= AUC0-672 h/672 h) ([7]; rat F, 10 mg/kg/day): 58.8 ng/mL
AUC0-24 h (= AUC0-672 h/28) ([7]; rat F, 30 mg/kg/day): 4320 ng·h/mL
Cmax ([7]; rat F, 30 mg/kg/day): 219 ng/mL
Css (= AUC0-672 h/672 h) ([7]; rat F, 30 mg/kg/day): 180 ng/mL
AUC0-24 h (= AUC0-672 h/28) ([7]; rat F, 60 mg/kg/day): 8110 ng·h/mL
Cmax ([7]; rat F, 60 mg/kg/day): 441 ng/mL
Css (= AUC0-672 h/672 h) ([7]; rat F, 60 mg/kg/day): 338 ng/mL
AUC0-24 h (= AUC0-672 h/28) ([7]; rat M, 10 mg/kg/day): 1790 ng·h/mL
Cmax ([7]; rat M, 10 mg/kg/day): 93.8 ng/mL
Css (= AUC0-672 h/672 h) ([7]; rat M, 10 mg/kg/day): 74.4 ng/mL
AUC0-24 h (= AUC0-672 h/28) ([7]; rat M, 30 mg/kg/day): 4890 ng·h/mL
Cmax ([7]; rat M, 30 mg/kg/day): 233 ng/mL
Css (= AUC0-672 h/672 h) ([7]; rat M, 30 mg/kg/day): 204 ng/mL
AUC0-24 h (= AUC0-672 h/28) ([7]; rat M, 60 mg/kg/day): 9960 ng·h/mL
Cmax ([7]; rat M, 60 mg/kg/day): 464 ng/mL
Css (= AUC0-672 h/672 h) ([7]; rat M, 60 mg/kg/day): 415 ng/mL
exposure at NOAEL relative to the human exposure at the MRHD (Beagle dogs; 12 mg/kg/day vs human 90 μg/kg/h): equivalent to the human exposure
mortality (Beagle dogs; [12]): no test article- or vehicle-related mortalities
test article-related clinical signs (Beagle dogs; [12]): limited to one male dosed with 36 mg/kg which had a convulsion occurring 4 days after completing the 28-day infusion
NOAEL (Beagle dogs; 28-day continuous IV infusion, based on convulsion in one 36 mg/kg dog and SBECD-related renal tubular vacuolation at ≥36 mg/kg): 12 mg/kg/day
AUC0-24 h (= AUC0-672 h/28) ([8]; dog F, 12 mg/kg/day): 1820 ng·h/mL
Cmax ([8]; dog F, 12 mg/kg/day): 97.3 ng/mL
Css (= AUC0-672 h/672 h) ([8]; dog F, 12 mg/kg/day): 75.9 ng/mL
AUC0-24 h (= AUC0-672 h/28) ([8]; dog F, 36 mg/kg/day): 6960 ng·h/mL
Cmax ([8]; dog F, 36 mg/kg/day): 338 ng/mL
Css (= AUC0-672 h/672 h) ([8]; dog F, 36 mg/kg/day): 290 ng/mL
AUC0-24 h (= AUC0-672 h/28) ([8]; dog F, 72 mg/kg/day): 11300 ng·h/mL
Cmax ([8]; dog F, 72 mg/kg/day): 571 ng/mL
Css (= AUC0-672 h/672 h) ([8]; dog F, 72 mg/kg/day): 471 ng/mL
AUC0-24 h (= AUC0-672 h/28) ([8]; dog M, 12 mg/kg/day): 1680 ng·h/mL
Cmax ([8]; dog M, 12 mg/kg/day): 89.3 ng/mL
Css (= AUC0-672 h/672 h) ([8]; dog M, 12 mg/kg/day): 69.9 ng/mL
AUC0-24 h (= AUC0-672 h/28) ([8]; dog M, 36 mg/kg/day): 5760 ng·h/mL
Cmax ([8]; dog M, 36 mg/kg/day): 310 ng/mL
Css (= AUC0-672 h/672 h) ([8]; dog M, 36 mg/kg/day): 240 ng/mL
AUC0-24 h (= AUC0-672 h/28) ([8]; dog M, 72 mg/kg/day): 12900 ng·h/mL
Cmax ([8]; dog M, 72 mg/kg/day): 708 ng/mL
Css (= AUC0-672 h/672 h) ([8]; dog M, 72 mg/kg/day): 538 ng/mL
human exposure AUC0-24h [9]: 1800 ng·h/mL
human exposure Css [9]: 74.3 ng/mL
